According to the supplement of paper PMC8617591:

How the values were obtained:
[1] = system: Mycobacterium tuberculosis Erdman (autoluminescent); assay: FIC50 (Loewe) at 50% inhibition (log2); higher = more antagonistic
Description: (§1)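 DiaMOND equipotent two-drug combination dose responses against autoluminescent M. tuberculosis Erdman in 8 in vitro models. Read-out is OD600, or luminescence for the intracellular and dormancy models, normalised to untreated wells. Hill-fit Einf, AUC25 and GRinf are potency metrics; FIC50 and FIC90 are Loewe-additivity fractional inhibitory concentrations, given as log2 (negative = synergy). Replicates are averaged.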

[2] = system: Mycobacterium tuberculosis Erdman (autoluminescent); assay: AUC25, normalised area under dose response up to IC25 (fraction (0-1)); higher = more potent at low dose
Description: as §1

[3] = system: Mycobacterium tuberculosis Erdman (autoluminescent); assay: FIC90 (Loewe) at 90% inhibition (log2); higher = more antagonistic
Description: as §1

[4] = system: Mycobacterium tuberculosis Erdman (autoluminescent); assay: Einf, fitted maximum growth inhibition of combination (fraction); higher = stronger maximal inhibition
Description: as §1

[5] = system: Mycobacterium tuberculosis Erdman (autoluminescent); assay: GRinf, maximum normalised growth rate inhibition (unitless (-1 to 1)); higher = less effect (negative = killing)
Description: as §1

COc1c(N2C[C@@H]3CCCN[C@@H]3C2)c(F)cc2c(=O)c(C(=O)O)cn(C3CC3)c12 [moxifloxacin] + CO[C@H]1/C=C/O[C@@]2(C)Oc3c(C)c(O)c4c(O)c(c(/C=N/N5CCN(C)CC5)c(O)c4c3C2=O)NC(=O)/C(C)=C\C=C\[C@H](C)[C@H](O)[C@@H](C)[C@@H](O)[C@@H](C)[C@H](OC(C)=O)[C@@H]1C [rifampicin]
Settings	AUC25, [2]	Einf, [4]	FIC50, [1]	FIC90, [3]	GRinf, [5]
in vitro model: acidic pH 5.7, time point: constant (~7 days, model-specific)	0.0689	0.781	0.367	–	0.0866
in vitro model: acidic pH 5.7, time point: terminal (~4-5 doublings, model-specific)	0.0663	0.968	0.382	0.156	-0.0508
in vitro model: intracellular J774, time point: constant = terminal	–	0.985	–	0.644	-0.307

Settings	AUC25, [2]	Einf, [4]	FIC50, [1]	FIC90, [3]	GRinf, [5]
in vitro model: butyrate, time point: constant (~7 days, model-specific)	0.107	0.886	0.528	0.508	0.0889
in vitro model: butyrate, time point: terminal (~4-5 doublings, model-specific)	0.0896	0.956	0.435	0.598	0.0327
in vitro model: cholesterol 0.05 mM, time point: constant (~7 days, model-specific)	0.117	0.62	0.744	–	0.145
in vitro model: cholesterol 0.05 mM, time point: terminal (~4-5 doublings, model-specific)	0.091	0.885	0.35	-0.321	-0.0751
in vitro model: cholesterol-high 0.2 mM, time point: constant (~7 days, model-specific)	0.0744	0.8	0.432	–	-0.0793
in vitro model: cholesterol-high 0.2 mM, time point: terminal (~4-5 doublings, model-specific)	0.066	0.985	0.68	0.43	-0.57
in vitro model: dormancy (butyrate + nitrate, low O2), time point: constant (~7 days, model-specific)	0.071	0.923	0.513	-0.28	0.0564
in vitro model: dormancy (butyrate + nitrate, low O2), time point: terminal (~4-5 doublings, model-specific)	0.059	0.98	0.589	0.752	-0.197
in vitro model: standard 7H9 glycerol, time point: constant = terminal	0.0477	0.828	0.486	–	0.308
in vitro model: valerate, time point: constant (~7 days, model-specific)	0.04	0.842	0.724	–	0.085
in vitro model: valerate, time point: terminal (~4-5 doublings, model-specific)	0.0278	0.925	0.717	0.437	0.0646

COc1c(N2C[C@@H]3CCCN[C@@H]3C2)c(F)cc2c(=O)c(C(=O)O)cn(C3CC3)c12 [moxifloxacin] + NC(=O)c1cnccn1 [pyrazinamide]
Settings	AUC25, [2]	Einf, [4]	FIC50, [1]	FIC90, [3]	GRinf, [5]
in vitro model: acidic pH 5.7, time point: constant (~7 days, model-specific)	0.105	0.748	-1.4	–	-0.479
in vitro model: acidic pH 5.7, time point: terminal (~4-5 doublings, model-specific)	0.0766	0.958	0.112	-1.08	-0.337
in vitro model: intracellular J774, time point: constant = terminal	–	0.992	–	0.544	-0.418

Settings	AUC25, [2]	Einf, [4]	FIC50, [1]	FIC90, [3]	GRinf, [5]
in vitro model: butyrate, time point: constant (~7 days, model-specific)	0.114	0.922	0.244	0.945	-0.0871
in vitro model: butyrate, time point: terminal (~4-5 doublings, model-specific)	0.076	0.967	0.181	0.416	0.0175
in vitro model: cholesterol 0.05 mM, time point: constant (~7 days, model-specific)	0.12	0.628	–	–	0.0508
in vitro model: cholesterol 0.05 mM, time point: terminal (~4-5 doublings, model-specific)	0.135	0.936	-0.139	1.9	-0.173
in vitro model: cholesterol-high 0.2 mM, time point: constant (~7 days, model-specific)	0.0967	0.93	0.32	–	-0.314
in vitro model: cholesterol-high 0.2 mM, time point: terminal (~4-5 doublings, model-specific)	0.0857	0.997	0.528	0.356	-0.695
in vitro model: dormancy (butyrate + nitrate, low O2), time point: constant (~7 days, model-specific)	0.0895	0.921	-0.473	-0.106	0.0154
in vitro model: dormancy (butyrate + nitrate, low O2), time point: terminal (~4-5 doublings, model-specific)	0.0636	0.983	-0.404	-0.148	-0.105
in vitro model: standard 7H9 glycerol, time point: constant = terminal	0.0774	0.974	–	–	-0.163
in vitro model: valerate, time point: constant (~7 days, model-specific)	0.0818	0.834	0.51	–	-0.121
in vitro model: valerate, time point: terminal (~4-5 doublings, model-specific)	0.0462	0.917	0.399	0.0879	0.0483

COc1c(N2C[C@@H]3CCCN[C@@H]3C2)c(F)cc2c(=O)c(C(=O)O)cn(C3CC3)c12 [moxifloxacin] + O=[N+]([O-])c1cn2c(n1)OC[C@@H](OCc1ccc(OC(F)(F)F)cc1)C2 [pretomanid]
Settings	AUC25, [2]	Einf, [4]	FIC50, [1]	FIC90, [3]	GRinf, [5]
in vitro model: acidic pH 5.7, time point: constant (~7 days, model-specific)	0.139	0.846	0.225	–	-0.773
in vitro model: acidic pH 5.7, time point: terminal (~4-5 doublings, model-specific)	0.107	0.976	-0.052	0.879	-0.428
in vitro model: intracellular J774, time point: constant = terminal	–	0.993	–	-0.156	-0.437

Settings	AUC25, [2]	Einf, [4]	FIC50, [1]	FIC90, [3]	GRinf, [5]
in vitro model: butyrate, time point: constant (~7 days, model-specific)	0.0964	0.947	0.526	0.61	-0.0779
in vitro model: butyrate, time point: terminal (~4-5 doublings, model-specific)	0.0655	0.973	0.406	0.607	-0.07
in vitro model: cholesterol 0.05 mM, time point: constant (~7 days, model-specific)	0.119	0.751	0.221	–	-0.223
in vitro model: cholesterol 0.05 mM, time point: terminal (~4-5 doublings, model-specific)	0.105	0.938	0.248	0.691	-0.248
in vitro model: cholesterol-high 0.2 mM, time point: constant (~7 days, model-specific)	0.103	0.952	0.238	1.96	-0.404
in vitro model: cholesterol-high 0.2 mM, time point: terminal (~4-5 doublings, model-specific)	0.0655	1	0.457	0.364	-0.745
in vitro model: dormancy (butyrate + nitrate, low O2), time point: constant (~7 days, model-specific)	0.0724	0.898	0.568	0.524	0.165
in vitro model: dormancy (butyrate + nitrate, low O2), time point: terminal (~4-5 doublings, model-specific)	0.0602	0.96	0.607	0.936	-0.142
in vitro model: standard 7H9 glycerol, time point: constant = terminal	0.0929	0.978	-0.329	0.198	-0.166
in vitro model: valerate, time point: constant (~7 days, model-specific)	0.12	0.9	-0.0268	–	-0.302
in vitro model: valerate, time point: terminal (~4-5 doublings, model-specific)	0.102	0.968	-0.156	0.429	-0.0344

O=[N+]([O-])c1cn2c(n1)OC[C@@H](OCc1ccc(OC(F)(F)F)cc1)C2 [pretomanid] + CO[C@H]1/C=C/O[C@@]2(C)Oc3c(C)c(O)c4c(O)c(c(/C=N/N5CCN(C6CCCC6)CC5)c(O)c4c3C2=O)NC(=O)/C(C)=C\C=C\[C@H](C)[C@H](O)[C@@H](C)[C@@H](O)[C@@H](C)[C@H](OC(C)=O)[C@@H]1C [rifapentine]
Settings	AUC25, [2]	Einf, [4]	FIC50, [1]	FIC90, [3]	GRinf, [5]
in vitro model: acidic pH 5.7, time point: constant (~7 days, model-specific)	0.101	0.925	0.285	–	-0.447
in vitro model: acidic pH 5.7, time point: terminal (~4-5 doublings, model-specific)	0.0525	0.991	0.359	0.243	-0.276
in vitro model: intracellular J774, time point: constant = terminal	–	0.991	–	-0.454	-0.347

Settings	AUC25, [2]	Einf, [4]	FIC50, [1]	FIC90, [3]	GRinf, [5]
in vitro model: butyrate, time point: constant (~7 days, model-specific)	0.0925	0.929	0.307	0.357	-0.0285
in vitro model: butyrate, time point: terminal (~4-5 doublings, model-specific)	0.0679	0.963	0.223	0.114	-0.0133
in vitro model: cholesterol 0.05 mM, time point: constant (~7 days, model-specific)	0.114	0.732	0.253	–	-0.354
in vitro model: cholesterol 0.05 mM, time point: terminal (~4-5 doublings, model-specific)	0.0965	0.93	0.285	1.63	-0.257
in vitro model: cholesterol-high 0.2 mM, time point: constant (~7 days, model-specific)	0.0774	0.911	0.634	–	-0.247
in vitro model: cholesterol-high 0.2 mM, time point: terminal (~4-5 doublings, model-specific)	0.0546	0.979	0.806	0.721	-0.463
in vitro model: dormancy (butyrate + nitrate, low O2), time point: constant (~7 days, model-specific)	0.0571	0.904	0.527	0.277	0.192
in vitro model: dormancy (butyrate + nitrate, low O2), time point: terminal (~4-5 doublings, model-specific)	0.0438	0.983	0.383	0.448	-0.148
in vitro model: standard 7H9 glycerol, time point: constant = terminal	0.0697	0.928	-0.158	0.519	0.0428
in vitro model: valerate, time point: constant (~7 days, model-specific)	0.127	0.892	0.377	–	-0.0483
in vitro model: valerate, time point: terminal (~4-5 doublings, model-specific)	0.0738	0.954	0.21	0.484	-0.107
